Patent US20150024008A1, “Methods and Compositions Involving Induced Senescent Cells for Cancer Treatment” (THE UNIVERSITY OF CHICAGO, priority 2011, published 2015)

Legend:
[1] = system: B16SIY murine melanoma cells; assay: DNA damage foci (γH2AX, 53BP1) and SA-βGal senescence in B16SIY cells in vitro; assay type: cell-based, mouse; details: with IR
Procedure: (§1) Slides were deparaffinized in xylene and hydrated with alcohol before being placed in 0.3% H2O2/methanol blocking solution to quench endogenous peroxidase activity followed by subsequent antigen unmasking in EDTA buffer. […] Reactions were developed with 3,3′-diaminobenzidine chromogen or Vulcan Red, respectively, and counterstained with hematoxylin. Negative controls were obtained by using isotype-matched primary antibody IgG. The SA-βGal assay was performed using the Senescence Beta-galactosidase Staining Kit (Cell Signaling) (Dunn 2006). All images were captured using Zeiss Axiovert 200M and Zeiss Axiocam color digital camera controlled by OpenLab software with a 20× objective. All primers sequence and running protocols for RT-PCR can be found in reference Table 2 (Lugade 2008, Zhang 2008).
(§2) B16SIY cells were maintained in a full medium supplemented with 10% FCS. The cells were pretreated with 10 μm veliparib then exposed to 6 or 12 Gy x-ray or IR alone (Gammacell 1000; MDS Nordion, Kanata, Ontario, Canada), then cocultured with immature BM-DC in a transwell system. 3 days later BM-DC were collected and analyzed by FACS for cell surface maturation marker and intracellular cytokines. These BM-DC were used to stimulate sorted CD4+ cells (Lugade 2008, Zhang 2008).

bone marrow DCs = assay: BM-DC coculture with veliparib/IR treated B16 cells; assay type: cell-based, mouse
Source text: as §2, with “These BM-DC were used to stimulate sorted CD4+ cells (Lugade 2008, Zhang 2008).” left out

[2] = system: murine pancreatic cancer cell line p1048; assay: SA-βGal staining and cytokine expression in p1048 cells; assay type: cell-based, mouse
Procedure: as §1

B16 tumors [3] = assay: Flow cytometry of tumor infiltrating lymphocytes from B16 tumors; assay type: in vivo, mouse; details: veliparib+IR
Procedure: (§3) Mouse melanoma cell line B16SIY (5×10^5 cells) were implanted subcutaneously in the flank of 6 to 8-wk-old C57/B6 mice. Tumors were allowed to grow until they reached a volume of about 100 to 150 mm^3 (approximately 2 wk) before treatment with PARP inhibitor veliparib (vrib, (R)-2-(2-methylpyrrolidin-2-yl)-1H-benzo[d]imidazole-4-carboxamide, ABT-888) and/or IR (Dunn 2006). Mice received 0.5 mg of veliparib in water twice daily by oral gavage as indicated. CD8^+, CD4^+, NK cells were depleted by anti-CD8 or anti-CD4 or anti-NK1.1, respectively, 1 d before IR. Depletion was confirmed by checking peripheral blood samples by flow cytometry. Macrophages were depleted with liposomal clodronate starting 1 d before IR. Depletion was confirmed by checking splenocyte and tumor samples by flow cytometry (Zhang 2008). Samples were collected 2 to 7 days later, and analyzed by flow cytometry using a BD LSRII flow cytometer. Blood samples were gated in forward scatter and side scatter on smaller cells for CD8, CD4 analysis, larger cells for NK and macrophage, and the percentage of different cell types were determined (Lugade 2008, Zhang 2010).

[4] = system: MCF7 Tet-On GFP-IBD human breast cancer cell line; assay: GFP-53BP1 IRIF persistence, senescence and growth in MCF7 Tet-On GFP-IBD cells; assay type: cell-based
Procedure: To examine the effect of glucose metabolism on IRIF persistence in living cells, we exploited our previously described IRIF reporter consisting of GFP fused to the 53BP1 IRIF binding domain, expressed under tetracycline-inducible control. MCF7^Tet-On GFP-IBD cells were seeded at 3×10^5 per Fluorodish (World Precision Instruments, Inc.) in high-glucose (4.5 g/L) DMEM (Invitrogen) media supplemented with 10% Tet system-approved fetal bovine serum (Clontech) and 1 μg/mL doxycycline (Sigma). Next day media was exchanged for either high-glucose (4.5 g/L) or low-glucose (1 g/L) DMEM with 10% FBS and 1 μg/mL doxycycline. […] Cells were fixed at 3 h and 24 h for IRIF imaging and at day 5 for SA-βGal staining. Images were captured on Zeiss Axiovert 200M and a Hammatsu Orca ER FireWire digital monochrome (IRIF) or Zeiss Axiocam color digital camera (SA-βGal staining) controlled by OpenLab software.
To investigate what step of glycolysis is critical for improvement of DNA repair we used set of well established glycolysis inhibitors including glucose transporter Glut1 inhibitor, HXKi, GAPHi, PKi, LDHi. […] Given that elevated glycolysis predispose tumor cells for therapeutic resistance similar experiment has been performed on IR resistant PANC02 mouse pancreatic and U87 human glioma cell lines.

[5] = system: B16SIY murine melanoma tumors; assay: B16SIY tumor growth after veliparib and IR; assay type: in vivo, mouse; details: veliparib 0.5 mg twice daily oral + 6 or 12 Gy IR vs IR alone; C57/B6 mice
Procedure: as §3

B16 tumors [6] = assay: RT-qPCR and immunohistochemistry of treated B16 tumors; assay type: in vivo, mouse
Procedure: as §3, §1

[7] = veliparib+IR, 7 days after irradiation

## C[C@]1(c2nc3c(C(N)=O)cccc3[nH]2)CCCN1 [veliparib, (R)-2-(2-methylpyrrolidin-2-yl)-1H-benzo[d]imidazole-4-carboxamide]
[1]; 24 h
  DNA damage foci resolution (γH2AX, p53BP1): delayed DNA damage foci resolution
[1]; day 7
  accelerated senescence (cell morphology, SA-βGal): induced accelerated senescence
Bone marrow DCs; DCs from coculture with veliparib+IR treated B16 cells
  CD8+ cell proliferation stimulated by cocultured DCs: better stimulated CD8+ cell proliferation
Bone marrow DCs; coculture with B16 cells treated with veliparib+6 Gy vs untreated or irradiated cells
  CD11c+ cell proliferation: increased CD11c+ cell proliferation
Bone marrow DCs; coculture with veliparib+IR-treated cells vs radiation only
  CD11c+ cell maturation (MHC-II+, CD86+): enhanced CD11c+ cell maturation
[2]; veliparib and 12 Gy
  accelerated senescence and SASP: entering accelerated senescence and displaying an altered SASP
[2]; [7]
  SA-βGal staining: induced SA-βGal staining
  cytokine expression: upregulation of multiple cytokines
B16 tumors [3]
  NK cells in tumors: more abundant
  proportion of IFNγ-producing CD8+ cells among tumor infiltrating lymphocytes: 29%
[4]; combined with cisplatin
  effect on cisplatin-induced foci persistence, senescence and growth suppression: enhances this effect
[4]; combined with irradiation
  accelerated senescence: induces accelerated senescence
  persistence of GFP-53BP1 foci (IRIF): enhance radiation induced persistence of GFP-53BP1 foci
[4]; irradiated cells, estrogen
  foci persistence and senescence in presence of estrogen: overcomes the activity of estrogen
[4]; veliparib+6 Gy vs veliparib or radiation alone
  growth: causes growth suppression
[5]
  tumor regrowth: markedly delayed tumor regrowth
B16 tumors [6]; veliparib+IR
  SASP gene expression in tumors (IFNβ, IFNγ, CCL2, CCL5, CXCL9, CXCL10, CXCL11): increased expression of SASP genes
  immunohistochemistry of enlarged senescent tumor cells: distinct strong staining of IFNβ, CCL2, CXCL9 and CXCL10
B16 tumors [6]; veliparib+IR vs IR alone, normalized to GAPDH
  p21 and p16 expression in tumors: significantly increased expression of p21 and p16
